From patent publication US20220184183A1, “PHARMACEUTICAL COMPOSITION, FOR PREVENTING OR TREATING INFLAMMATORY DISEASES, COMPRISING OSTEOCALCIN” (GENEROATH CO., LTD., priority 2019, published 2022)
Where no end group is shown, it is not given here.

Assays:
Type in all cases: cell-based
NF-κB promoter = assay: TNF-α-induced NF-κB promoter (luciferase) activity; conditions: stated in the description, no method given
[1] = tested on: macrophage cell lines (RAW 264.7); assay: TNF-α-induced inflammatory cytokines and inflammatory mediating enzyme proteins in immune cells (ELISA, western blot); conditions: ucOCN 0.5, 5, 50 ng/ml pretreatment 8, 24, 48 hours, then TNF-α 10 ng/ml 8 hours, FIGS. 7 and 8
Description: First, macrophage cell lines (RAW 264.7) were obtained as immune cells. Undercarboxylated osteocalcin (ucOCN) was treated in a medium at four different concentrations of 0 ng/ml, 0.5 ng/ml, 5 ng/ml and 50 ng/ml, and macrophage cell lines were prepared in three groups and cultured and pre-treated at 5% CO2, 37° C. for 8 hours, 24 hours, and 48 hours, respectively.
In order to induce an inflammatory response, each medium was treated with 10 ng/ml of TNF-α, and cultured for 8 hours under the same conditions to obtain a supernatant.
In order to observe changes in the expression level of TNF-α-induced inflammatory cytokines (TNF-α and IL-6) and inflammatory mediating enzyme proteins (iNOS and COX-2) in immune cells by undercarboxylated osteocalcin, the following experiments were performed.
In each supernatant obtained from Example 2.1 above, the concentrations of TNF-α, IL-1β and IL-6 were measured through ELISA, and the expression level of […] was identified through western blot.

NF-κB = assay: Inhibition of TNF-α-induced NF-κB activity in skeletal muscle cells (western blot, immunofluorescence)
Description: In order to observe the effect of undercarboxylated osteocalcin on the activity of NF-κB induced by TNF-α in skeletal muscle cells, the following experiment was performed.
(§1) Undercarboxylated osteocalcin (ucOCN) was treated at a concentration of 0.5 ng/ml in the medium (DMEM medium containing 10% heat-inactivated fetal bovine serum (FBS), 100 U/mL of penicillin and […] of streptomycin, hereinafter the same), and skeletal muscle cell lines (C2C12) were prepared in three groups, and cultured and pre-treated at 5% CO2, 37° C. for 1 minute, 10 minutes, and 30 minutes, respectively.
(§2) In order to induce an inflammatory response, each medium was treated with TNF-α 10 ng/ml, and cultured for 8 hours under the same conditions.
For the cultured cells of each group, the phosphorylation level and the protein amounts in the nucleus of IκBα, IKK (hereinafter, intracytoplasmic) and P65 NF-κB in each group were measured through western blot, and immunofluorescence analysis for each group was performed.

[2] = tested on: skeletal muscle cell line (C2C12); assay: Level of reactive oxygen species in TNF-α-stimulated skeletal muscle cells (DAPI and CellRox staining); conditions: ucOCN 0.5 and 5 ng/ml vs untreated group, TNF-α 10 ng/ml, FIG. 3
Description: (§3) First, skeletal muscle cell lines (C2C12) were obtained. Undercarboxylated osteocalcin (ucOCN, purchased from Bachem, Switzerland) was treated in a medium (DMEM medium containing 10% heat-inactivated fetal bovine serum (FBS), 100 U/mL of penicillin and […] of streptomycin, hereinafter the same) at four different concentrations of 0 ng/ml, 0.5 ng/ml, 5 ng/ml and 50 ng/ml, and skeletal muscle cell lines (C2C12) were prepared in three groups and cultured and pre-treated at 5% CO2, 37° C. for 8 hours, 24 hours, and 48 hours, respectively.
(§4) In order to induce an inflammatory response, each medium was treated with 10 ng/ml of TNF-α (purchased from Peprotech, USA), and cultured for 8 hours under the same conditions.
In order to identify the level of reactive oxygen species (ROS) in the undercarboxylated osteocalcin-treated cells by being induced inflammatory response with TNF-α in skeletal muscle cells, the following experiment was performed.
The cells obtained in Example 1.1 above were stained with DAPI and CellRox, and observed under a microscope.

[3] = tested on: skeletal muscle cell line (C2C12); assay: TNF-α-induced inflammatory cytokine production in skeletal muscle cells (ELISA, Real-Time PCR, western blot)
Description: as §3, §4
In order to observe the change in the expression level of TNF-α-induced inflammatory cytokines (TNF-α, IL-1β and IL-6) in skeletal muscle cells due to undercarboxylated osteocalcin, the following experiment was performed.
In the cells obtained from Example 1.1 above, the concentrations of TNF-α, IL-1β and IL-6 were measured through ELISA, and the expression levels of RNA and protein of IL-1β and IL-6 were identified through Real-Time PCR and western blot.

JNK, p38 MAPK, and NF-κB = assay: Subcellular signaling in TNF-α-stimulated skeletal muscle cells (western blot); conditions: C2C12; ucOCN 0.5 ng/ml pretreatment 1, 10, 30 minutes; TNF-α 10 ng/ml; FIG. 4
Description: In order to observe the effect of undercarboxylated osteocalcin on the subcellular signaling process on the inflammatory response induced by TNF-α in skeletal muscle cells, the following experiment was performed.
as §1, §2
For the cultured cells of each group, the protein amount and phosphorylation level of JNK, p38 MAPK, and NF-κB in each group were measured through western blot.

Question: For “undercarboxylated osteocalcin (YLYQWLGAPVPYPDPLEPRREVCELNPDCDELADHIGFQEAYRRFYGPV; not fully specified; ends and bridges not checked; UniProt P02818 52-100, looked up) [osteocalcin in which at least one of the three gamma-carboxylglutamate residues is not γ-carboxylated; purchased from Bachem, Switzerland]”, which “TNF-α-induced NF-κB luciferase activity” value (NF-κB promoter) is on record?
Answer: significantly inhibits

Question: And the “production of inflammatory cytokines TNF-α, IL-1β, IL-6 and inflammatory mediating enzyme proteins iNOS and COX-2” value [1]?
Answer: inhibited the production of inflammatory cytokines and inflammatory mediating enzyme proteins

Question: And the “cytoplasmic-to-nuclear translocation of NF-κB induced by TNF-α” value (NF-κB; C2C12, immunofluorescence analysis, FIG. 6)?
Answer: inhibited cytoplasmic-to-nuclear translocation of NF-κB

Question: And the “PHOPHO-IκBα and total IκBα (TNF-α alone: phospho increased, total decreased)” value (NF-κB; C2C12 cytoplasm, ucOCN 0.5 ng/ml, TNF-α 10 ng/ml, FIG. 5)?
Answer: showed the opposite result

Question: And the “level of reactive oxygen species” value [2]?
Answer: significantly inhibited

Question: What about the IL-1β production ([3]; TNF-α 10 ng/ml, FIG. 1) of the same substance?
Answer: inhibitory effect of IL-1β production among inflammatory cytokines was remarkably shown

Question: What about the “IL-1β production (protein amount)” value ([3]; all treatment concentrations of ucOCN (0.5, 5, 50 ng/ml), FIG. 2) of the same substance?
Answer: remarkable production inhibitory effect

Question: And the “inhibition of inflammatory cytokine production by treatment time” value ([3]; group treated with ucOCN for 8 hours and 48 hours, FIG. 1)?
Answer: remarkably excellent inhibitory effect

Question: What about the “TNF-α (protein amount)” value ([3]; group treated with ucOCN for 8 hours, FIG. 2) of the same substance?
Answer: excellent inhibitory effect

Question: And the “IL-6 (protein amount)” value ([3]; ucOCN 0.5 ng/ml and 5 ng/ml within 24 hours, FIG. 2)?
Answer: remarkable inhibitory effect

Question: And the “production of inflammatory cytokines TNF-α, IL-1β and IL-6” value ([3]; ucOCN 0.5, 5, 50 ng/ml pretreatment 8, 24, 48 hours, then TNF-α 10 ng/ml 8 hours, FIG. 1)?
Answer: inhibited the production of inflammatory cytokines

Question: And the “protein amount of NF-κB” value (JNK, p38 MAPK, and NF-κB)?
Answer: significantly inhibited

Question: What about the “protein amounts and phosphorylation levels of JNK and p38 MAPK” value (JNK, p38 MAPK, and NF-κB) of the same substance?
Answer: significantly inhibited
